ChEMBL document CHEMBL1201862, “PubChem BioAssay data set” (2004)
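Test compounds were applied to cells in 96-well plates for 48 hours at 5 doses. Here, GI50 denotes the concentration required for 50% inhibition of growth.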 Calls of active or inactive are those of the source. Cut-off read from the data, not from the text of the source: active = GI50 up to about 1.1 µM and inactive = higher.

Key:
Test in all cases: NCI-60 cell line screen, 48 h
SNB-78 = test system: SNB-78
LXFL 529 = test system: LXFL 529
DLD-1 = test system: DLD-1
KM-20L2 = test system: KM-20L2
XF498 = test system: XF498
DMS-114 = test system: DMS-114
HOP-18 = test system: HOP-18
M19-MEL = test system: M19-MEL
RXF 631 = test system: RXF 631

Row | SMILES | GI50 (SNB-78) | GI50 (LXFL 529) | GI50 (DLD-1) | GI50 (KM-20L2) | GI50 (XF498) | GI50 (DMS-114) | GI50 (HOP-18) | GI50 (M19-MEL) | GI50 (RXF 631)
1 | O=C1CCCCC1S(=O)(=O)c1ccccc1 (configuration not stated) | > 100 µM (inactive) | > 100 µM (inactive) | > 100 µM (inactive) | > 100 µM (inactive) | > 100 µM (inactive) | > 100 µM (inactive) | > 100 µM (inactive) | > 100 µM (inactive) | 
2 | COc1cccc2c1C1(O)C2CCCCCCCCCC12OCCCO2 (configuration not stated) | > 100 µM (inactive) | 45.6 µM (inactive) | 6.64 µM (inactive) | > 100 µM (inactive) |  | > 100 µM (inactive) | > 100 µM (inactive) |  | 
3 | C=C1C(=O)OC2/C=C(\C)C3OC3/C=C(/C(=O)OC)C(OC(C)=O)C(OC(=O)C(C)(O)C(C)OC(C)=O)C12 (configuration not stated) | 2.53 µM (inactive) | 1.1 µM (active) | 2.39 µM (inactive) |  | 1.96 µM (inactive) | 1.15 µM (inactive) |  | 2.39 µM (inactive) | 2.55 µM (inactive)
4 | O=C1[C@H]2ON(c3ccccc3)C(c3ccc(Cl)cc3Cl)[C@H]2C(=O)N1c1ccc(Cc2ccc(N3C(=O)[C@@H]4ON(c5ccccc5)C(c5ccc(Cl)cc5Cl)[C@@H]4C3=O)cc2)cc1 (some centres not stated) | > 100 µM (inactive) | > 100 µM (inactive) | > 100 µM (inactive) | > 100 µM (inactive) |  | > 100 µM (inactive) | > 100 µM (inactive) | > 100 µM (inactive) | 
5 | NC(Cc1ccc2oc3cc(=O)c4ccccc4c-3nc2c1)C(=O)O (configuration not stated) | > 100 µM (inactive) | 55.5 µM (inactive) | 34.8 µM (inactive) | 39.2 µM (inactive) |  | 13.9 µM (inactive) | 25.8 µM (inactive) |  | 
6 | COC(=O)C(C(=O)C(=O)Nc1ccc(OC)cc1[N+](=O)[O-])c1nc2cc(C)c(C)cc2nc1O (configuration not stated) | > 100 µM (inactive) | > 100 µM (inactive) | > 100 µM (inactive) | > 100 µM (inactive) |  | > 100 µM (inactive) | > 100 µM (inactive) | > 100 µM (inactive) | > 100 µM (inactive)
7 | CC(=O)COC(=O)CC(C)=O |  | > 100 µM (inactive) | > 100 µM (inactive) | > 100 µM (inactive) | > 100 µM (inactive) | > 100 µM (inactive) |  | > 100 µM (inactive) | > 100 µM (inactive)
8 | CSc1n[n+]2c(s1)SCCC2 | > 100 µM (inactive) | > 100 µM (inactive) | > 100 µM (inactive) |  | > 100 µM (inactive) | 62.5 µM (inactive) | 42.7 µM (inactive) | > 100 µM (inactive) | > 100 µM (inactive)
9 | NS(=O)(=O)c1ccc(Nc2c3ccccc3nc3c(C(=O)N4CCN(CCO)CC4)cccc23)cc1 | 69.3 µM (inactive) | 60.3 µM (inactive) |  | > 100 µM (inactive) | > 100 µM (inactive) | 75.5 µM (inactive) | > 100 µM (inactive) | > 100 µM (inactive) | 
10 | C/C(=N\N=C(N)N)c1sc(-c2nc(C)c(/C(C)=N/N=C(N)N)s2)nc1C | > 100 µM (inactive) | > 88.3 µM (inactive) | > 51.2 µM (inactive) | > 100 µM (inactive) | > 100 µM (inactive) |  | > 100 µM (inactive) | > 100 µM (inactive) | 
11 | Cc1cc2oc(=O)[nH]c(=S)c2c(C)c1C |  | > 100 µM (inactive) |  | > 100 µM (inactive) | > 100 µM (inactive) | > 100 µM (inactive) | > 100 µM (inactive) | > 100 µM (inactive) | 
12 | COc1cc2c(cc1OC)[C@H]1C(COC(=O)Nc3ccccc3)CN1CC2 (some centres not stated) |  | > 100 µM (inactive) | > 100 µM (inactive) |  |  |  | > 100 µM (inactive) | > 100 µM (inactive) | 
13 | CCCCCCCCCCCCCCCCCC(=O)O[C@H](COC(=O)CCCCCCCCCCC)COC(=O)CCCCCCCCCCCCCCC |  | > 100 µM (inactive) | > 100 µM (inactive) | > 100 µM (inactive) |  | > 100 µM (inactive) | > 100 µM (inactive) | > 100 µM (inactive) | > 100 µM (inactive)
14 | CCCCCCCCCCCCCCCCOCC(CN(C)CCN(C)C)OCCCCCCCCCCCCCCCC (configuration not stated) | > 100 µM (inactive) | > 100 µM (inactive) | > 100 µM (inactive) | > 100 µM (inactive) |  | > 100 µM (inactive) | > 100 µM (inactive) | > 100 µM (inactive) | > 100 µM (inactive)
15 | COc1cc(CC2c3cc(OC)c(OC)cc3CCN2C)ccc1O (configuration not stated) | > 100 µM (inactive) | > 100 µM (inactive) | > 100 µM (inactive) | > 100 µM (inactive) | > 100 µM (inactive) |  | > 100 µM (inactive) |  | 
16 | C=C(C)C1Cc2c(cc(OC)c3c(=O)c4ccccc4n(C)c23)O1 (configuration not stated) | > 100 µM (inactive) | > 100 µM (inactive) | > 100 µM (inactive) | > 100 µM (inactive) | > 100 µM (inactive) | 91.8 µM (inactive) | > 100 µM (inactive) | 63.7 µM (inactive) | 
17 | O=C(/C=C/c1ccc(O)cc1)c1ccc(O)cc1 [4,4'-DIHYDROXYCHALCONE] | 45.2 µM (inactive) |  | 18 µM (inactive) | 20.3 µM (inactive) | 19.3 µM (inactive) | 18.9 µM (inactive) | 35.2 µM (inactive) | 21.7 µM (inactive) | 
